Experiments:
[1] = system: one-way MLR-generated human T-lymphocyte-mediated cytolysis; assay: Cytolysis by CTLs generated in one-way MLR, 51Cr-release assay; assay type: cell-based; details: T-cell, 1.0 µg/mL JO-4 during 5-7 day one-way MLR, four hour 51Cr-release, read-out: inhibition of the lytic capability of cytotoxic T-cells
Description: The "one-way MLR" was set up in tissue culture flasks with mononuclear cells from two different donors as in the "two-way MLR" described above. However, in "one-way MLR", one of the two mononuclear leukocyte populations was rendered incapable of proliferation by treatment with mitomycin C, an antimitotic drug, prior to culture. In this "one-way MLR", the treated cells served exclusively as stimulators and the untreated cells, still capable of proliferation, served as the responders. The responder cells, during a 5-7 day culture period, expressed the CD8+ phenotype but not the CD4+. These CD8+ cells served exclusively as cytolytic T lymphocytes (CTLs) which lyse target cells from the same individual as the original stimulator cell population. In transplantation, these MHC-restricted cytotoxic CD8+ T-cells lyse MHC disparate donor tissue targets, leading to graft rejection (Abbas, A.K., eds., 1994, 2nd ed., Cellular and Molecular Immunology, W.B. Saunders Co., USA; Imagawa, D.K., et al., in Aggarwal, B.B., et al., eds., 1995, Human Cytokines: Their role in Disease and Therapy, Blackwell Science, Inc., Cambridge, MA).
Mononuclear cells of one donor were first treated with mitomycin C (Sigma Chem. Co., St. Louis, MO) (50 µg/50 x 10^6 cells) in 15 mL tubes wrapped in aluminum foil and incubated in a 37°C water bath for 1 hr. […]

[2] = system: B16-F1 melanoma tumor; assay: B16-F1 melanoma tumor growth and survival in mice; assay type: in vivo, C57BL/6 (B6) mice; details: for survival of mice: day 28
Protocol: The following materials and methods were employed in the non-limiting Examples set out below. Tumor cells: Human cervical epitheloid carcinoma (HeLa), human renal clear cell carcinoma (CAKI-1), human malignant melanoma (RPMI-7951) and mouse malignant melanoma (B16-F1) were procured from ATCC (Rockville, MD) and maintained in vitro with MEM medium (Mediatech, Inc., Herndon, VA) supplemented with 10% heat-inactivated fetal bovine serum (American Qualex, San Clemente, CA), 10mM glutamine, 100 U/ml penicillin, and 100 µg/ml streptomycin (Sigma Chemicals, Saint Louis, MO) (complete medium). Normal cells: Normal human cervical ectoepithelial cells (CrEc-Ec), normal human mammary epithelial cells (HMEC) and normal human umbilical vein endothelial cells (HUVEC) were obtained from Clonetics (San Diego, CA) and cultured with the respective recommended tissue culture medium obtained from Clonetics. Peripheral Blood Mononuclear cells (PBMC): Heparinized venous blood was obtained from healthy adult volunteers and PBMC were separated by centrifugation over Ficoll-Hypaque (Pharmacia Biotech, Piscataway, NJ). The cells were washed three times with HBSS (Hanks Balanced Salt Solution) and finally resuspended in complete medium. Cell viability was assessed by trypan blue dye exclusion test and the cell number was adjusted to required concentration. Colorimetric MTT assay: Cytotoxic effects of the hypoestoxide compounds of formulas I and II (JO-4A) were determined in vitro by a colorimetric assay (Mosmann, T., J. Immunol. Methods, 65: 55-63, 1983). Briefly, 1000 cells per well (100 µl) in a 96-well flat-bottom plate were cultured either with the culture medium alone or with various concentrations of drug at 37°C, in a 5% CO2-95% air humidified incubator for 72 hours. At the end of the culture, 10 µl of 5 mg/ml sterile solution of 3-(4,5-Dimethylthiazol-2yl)-2,5-diphenyltetrazolium bromide (MTT) (Sigma Chemicals, Saint Louis, MO) in PBS was added per well and the incubation was resumed for an additional 4 hours. Acid-isopropanol (100 µl of 0.04 N HCl in isopropanol) was added to all wells and kept at room temperature for 30 minutes. Mixing with a multichannel pipetter dissolved the dark blue crystals and the absorbance was measured at 545-650 nm using an ELISA plate reader. Mice: Eight-week-old female C57BL/6 (B6) mice were purchased from Charles River Laboratories (Wilmington, MA. The measurement of tumor volume in mice: B16-F1 melanoma cells growing exponentially in vitro were harvested by 15 minutes incubation with 0.25% trypsin-EDTA solution (Irvin Scientific, Irvine, CA). The mice were given subcutaneous (s.c.) injections of 50,000 viable cells on the right side (Fidler, I. J. Cancer Research 35:218-224, 1975). Four days after injection, the mice in the experimental group were gavaged orally with various concentrations of JO-4A in 0.2 ml of water and the control group received water alone. The tumors were measured with a microcaliper, and the tumor volume was calculated by the formula: Length x width x height x 0.5236 (Jungwirth, A. et al., Proc. Natl. Acad. Sci. USA, 94:5810-5813, 1997). Statistical analysis: Students' t-test was used to calculate the level of significance.

[3] = system: NK activity; assay: NK activity in vivo, spleen cells against YAC-1 targets, 51Cr-release; design: species or system Mice
[4] = system: human cervical epitheloid carcinoma (HeLa) cells; assay: Colorimetric MTT cytotoxicity assay, HeLa; assay type: cell-based; details: 72 hours, read-out: IC50 (drug concentration capable of inducing 50% cytotoxicity)
Protocol: The following materials and methods were employed in the non-limiting Examples set out below. Tumor cells: Human cervical epitheloid carcinoma (HeLa), human renal clear cell carcinoma (CAKI-1), human malignant melanoma (RPMI-7951) and mouse malignant melanoma (B16-F1) were procured from ATCC (Rockville, MD) and maintained in vitro with MEM medium (Mediatech, Inc., Herndon, VA) supplemented with 10% heat-inactivated fetal bovine serum (American Qualex, San Clemente, CA), 10mM glutamine, 100 U/ml penicillin, and 100 µg/ml streptomycin (Sigma Chemicals, Saint Louis, MO) (complete medium). […] Cell viability was assessed by trypan blue dye exclusion test and the cell number was adjusted to required concentration. Colorimetric MTT assay: Cytotoxic effects of the hypoestoxide compounds of formulas I and II (JO-4A) were determined in vitro by a colorimetric assay (Mosmann, T., J. Immunol. Methods, 65: 55-63, 1983). […] Mixing with a multichannel pipetter dissolved the dark blue crystals and the absorbance was measured at 545-650 nm using an ELISA plate reader. […] The tumors were measured with a microcaliper, and the tumor volume was calculated by the formula: Length x width x height x 0.5236 (Jungwirth, A. et al., Proc. Natl. Acad. Sci. USA, 94:5810-5813, 1997). […]

How did the inhibition at 1 µg/mL [1] turn out when `C=C1C(=O)C[C@H]2C[C@@H]3O[C@@]3(C)CC[C@@H]3O[C@@]3(C)C[C@@H](OC(C)=O)[C@H]1C2(C)C` [JO-4, hypoestoxide] was run?
The inhibition at 1 µg/mL was 82%.

`C=C1C(=O)CC2CC3OC3(C)CCC3OC3(C)CC(O)C1C2(C)C` (stereo not shown) [JO-4A] was tested. Which survival of mice ([2]; 0.1 mg/Kg orally daily day 4 to day 20) did it give?
Its survival of mice is 17%.

What about the survival of mice ([2]; 0.5 mg/Kg orally daily day 4 to day 20) of the same compound?
Its survival of mice is 60%.

And the survival of mice ([2]; 1 mg/Kg orally daily day 4 to day 20)?
The survival of mice was 67%.

And the survival of mice ([2]; 2 mg/Kg orally daily day 4 to day 20)?
The survival of mice was 84%.

And the “survival compared with non-treated group” value ([2]; 2 mg/Kg orally, treatment stopped on day 20)?
Its value is “survived longer”.

And the tumor volume ([2]; oral, daily from day 4 post tumor implantation, all four concentrations tested, measured day 12)?
Its tumor volume is “significantly reduced”.

And the “NK activity in vivo” value ([3]; intravenous administration)?
The value was “inhibited”.

And the “NK activity in vivo” value ([3]; oral administration)?
The value was “inhibited”.

And the IC50 [4]?
The IC50 was 10 to 12.5 µM.

Reference: patent EP0986381B1, “USE OF DITERPENES LIKE HYPOESTOXIDES FOR THE MANUFACTURE OF A MEDICAMENT FOR IMMUNOSUPPRESSION, ANTICANCER AND ANTIVIRAL TREATMENT” (Immune Modulation, Inc., priority 1997, dated 1998)
